Source: patent publication US20110009263A1, “SELECTED SALTS OF 3-(5,6-DIHYDRO-1,4,2-DIOXAZIN-3-YL)-N-[(4,6-DIMETHOXYPYRIMIDIN-2-YL)CARBAMOYL]PYRIDINE-2-SULFONAMIDE, METHOD FOR THE PRODUCTION THEREOF, AND USE THEREOF AS HERBICIDES AND PLANT GROWTH REGULATORS” (priority 2008, published 2011)

Experiments:
Format in all cases: in vivo
Viola tricolor = settings: pre-emergence, application rate of 0.08 kg or less of active substance per hectare, 3 to 4 weeks
From the text: (§1) Seeds or rhizome pieces of mono- and dicotyledonous weeds were placed in sandy loam in cardboard pots and covered with soil. The compounds according to the invention, formulated in the form of wettable powders or emulsion concentrates, were then applied to the surface of the covering soil in the form of aqueous suspensions or emulsions at an application rate of 100 to 800 l of water/ha (converted), at various dosages.
(§2) After the treatment, the pots were placed in a greenhouse and kept under good growth conditions for the weeds. The visual scoring of the damage to the plants or the emergence damage was carried out after the emergence of the test plants after a test period of 3 to 4 weeks, by comparison with untreated controls. As shown by the results, the compounds according to the invention have good herbicidal pre-emergence activity against a broad spectrum of weed grasses and broad-leaved weeds.

Papaver rhoeas = settings: pre-emergence, application rate of 0.08 kg or less of active substance per hectare, 3 to 4 weeks
From the text: as §1, §2

Stellaria media = settings: pre-emergence, application rate of 0.08 kg or less of active substance per hectare, 3 to 4 weeks
From the text: as §1, §2

Matricaria inodora = settings: pre-emergence, application rate of 0.08 kg or less of active substance per hectare, 3 to 4 weeks
From the text: as §1, §2

Eleusine indica = settings: for ELEIN (post-emergence herbicidal action score): 2-4 leaf stage, 5 g of a.i./ha, scored after four weeks, 0=no damage, 100=complete control
Protocol: (§3) Seeds or rhizome pieces of monocotyledonous and dicotyledonous weeds were placed in sandy loam in plastic pots (Jiffy pots), covered with soil and cultivated in a greenhouse under good and defined growth conditions, i.e. at a day/night rhythm of 22° C./14° C. At the 2-4 leaf stage, the plants were then treated with an aqueous test solution of various compounds according to the invention at the stated dosage. After four weeks, the tests were scored according to the scheme below:
(§4) 0=no damage; 100=complete control
(§5) The control used was the Na^+ salt of 3-(5,6-dihydro-1,4,2-dioxazin-3-yl)-N-[(4,6-dimethoxypyrimidin-2-yl)carbamoyl]pyridine-2-sulfonamide which is already known from U.S. Pat. No. 5,476,936.

Ambrosia elatior = settings: for AMBEL (post-emergence herbicidal action score): 2-4 leaf stage, 5 g of a.i./ha, scored after four weeks, 0=no damage, 100=complete control
Protocol: as §3, §4, §5

Row | Compound | herbicidal activity against Viola tricolor (Viola tricolor) | herbicidal activity against Papaver rhoeas (Papaver rhoeas) | herbicidal activity against Stellaria media (Stellaria media) | herbicidal activity against Matricaria inodora (Matricaria inodora) | ELEIN (post-emergence herbicidal action score) (Eleusine indica) | AMBEL (post-emergence herbicidal action score) (Ambrosia elatior) | control of Ambrosia elatior (Ambrosia elatior; post-emergence) | controlling action against the monocotyledonous weed Eleusine indica (in words) (Eleusine indica; post-emergence) | effectiveness against the dicotyledonous weed Ambrosia elatior (in words) (Ambrosia elatior; post-emergence)
1 | COc1cc(OC)nc(NC(=O)NS(=O)(=O)c2ncccc2C2=NOCCO2)n1.N [Compound I-5, Ammonium {[3-(5,6-dihydro-1,4,2-dioxazin-3-yl)pyridin-2-yl]sulfonyl}[(4,6-dimethoxypyrimidin-2-yl)carbamoyl]azanide] | very good herbicidal activity | very good herbicidal activity | very good herbicidal activity | very good herbicidal activity | 80 | 75 | ≥ 75% |  | 
2 | 2-Chloro-N,N,N-trimethylethanaminium {[3-(5,6-dihydro-1,4,2-dioxazin-3-yl)pyridin-2-yl]sulfonyl}[(4,6-dimethoxypyrimidin-2-yl)carbamoyl]azanide [Compound I-39] | very good herbicidal activity | very good herbicidal activity | very good herbicidal activity | very good herbicidal activity | 93 | 80 |  |  | 
3 | COc1cc(OC)nc(NC(=O)NS(=O)(=O)c2ncccc2C2=NOCCO2)n1.[Na] [control, Na^+ salt of 3-(5,6-dihydro-1,4,2-dioxazin-3-yl)-N-[(4,6-dimethoxypyrimidin-2-yl)carbamoyl]pyridine-2-sulfonamide, reference compound] |  |  |  |  | 75 | 20 |  | good controlling action | controlled relatively weakly
4 | COc1cc(OC)nc(NC(=O)[N-]S(=O)(=O)c2ncccc2C2=NOCCO2)n1.[K+] [Compound I-2, Potassium {[3-(5,6-dihydro-1,4,2-dioxazin-3-yl)pyridin-2-yl]sulfonyl}[(4,6-dimethoxypyrimidin-2-yl)carbamoyl]azanide] | very good herbicidal activity | very good herbicidal activity | very good herbicidal activity | very good herbicidal activity | 80 | 80 |  |  | 
5 | 2-Hydroxy-N-(2-hydroxyethyl)ethanaminium {[3-(5,6-dihydro-1,4,2-dioxazin-3-yl)pyridin-2-yl]sulfonyl}[(4,6-dimethoxypyrimidin-2-yl)carbamoyl]azanide [Compound I-35] | very good herbicidal activity | very good herbicidal activity | very good herbicidal activity | very good herbicidal activity | 80 | 85 |  |  | 
6 | COc1cc(OC)nc(NC(=O)[N-]S(=O)(=O)c2ncccc2C2=NOCCO2)n1.[Li+] [Compound I-1, Lithium {[3-(5,6-dihydro-1,4,2-dioxazin-3-yl)pyridin-2-yl]sulfonyl}[(4,6-dimethoxypyrimidin-2-yl)carbamoyl]azanide] | very good herbicidal activity | very good herbicidal activity | very good herbicidal activity | very good herbicidal activity | 85 | 80 |  |  | 
7 | CC(C)N.COc1cc(OC)nc(NC(=O)NS(=O)(=O)c2ncccc2C2=NOCCO2)n1 [Compound I-14, Propan-2-aminium {[3-(5,6-dihydro-1,4,2-dioxazin-3-yl)pyridin-2-yl]sulfonyl}[(4,6-dimethoxypyrimidin-2-yl)carbamoyl]azanide] | very good herbicidal activity | very good herbicidal activity | very good herbicidal activity | very good herbicidal activity | 80 | 90 |  |  | 
8 | 2-(Acetyloxy)-N,N,N-trimethylethanaminium {[3-(5,6-dihydro-1,4,2-dioxazin-3-yl)pyridin-2-yl]sulfonyl}[(4,6-dimethoxypyrimidin-2-yl)carbamoyl]azanide [Compound I-40] | very good herbicidal activity | very good herbicidal activity | very good herbicidal activity | very good herbicidal activity | 93 | 80 |  |  | 
9 | 2-hydroxy-N,N,N-trimethylethanaminium {[3-(5,6-dihydro-1,4,2-dioxazin-3-yl)pyridin-2-yl]sulfonyl}[(4,6-dimethoxypyrimidin-2-yl)carbamoyl]azanide [Compound I-38] | very good herbicidal activity | very good herbicidal activity | very good herbicidal activity | very good herbicidal activity | 85 | 80 |  |  | 
